Assay results from ChEMBL document CHEMBL1201862, “PubChem BioAssay data set” (2004).
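These data come from cells grown in 96-well plates and exposed to compound for 48 hours at five concentrations. GI50 = concentration required for 50% inhibition of growth.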 The source made the active and inactive calls. No stated cut-off is given here; in the data, active = GI50 up to about 1.1 µM and inactive = higher.

How the values were obtained:
Test in all cases: growth of human tumour cells (NCI), 48 h
786-0 = test system: 786-0
A498 = test system: A498
A549 = test system: A549
ACHN = test system: ACHN
BT-549 = test system: BT-549
CAKI-1 = test system: CAKI-1
CCRF-CEM = test system: CCRF-CEM
COLO 205 = test system: COLO 205
DU-145 = test system: DU-145
EKVX = test system: EKVX
HCC 2998 = test system: HCC 2998
HCT-116 = test system: HCT-116
HCT-15 = test system: HCT-15
HL-60 = test system: HL-60
HOP-62 = test system: HOP-62
HOP-92 = test system: HOP-92
HT-29 = test system: HT-29
Hs-578T = test system: Hs-578T
IGROV-1 = test system: IGROV-1
K562 = test system: K562
KM12 = test system: KM12
LOX IMVI = test system: LOX IMVI
M14 = test system: M14
MCF7 = test system: MCF7
MDA-MB-231 = test system: MDA-MB-231
MDA-MB-435 = test system: MDA-MB-435
MDA-N = test system: MDA-N
MOLT-4 = test system: MOLT-4
Malme-3M = test system: Malme-3M
NCI-H226 = test system: NCI-H226
NCI-H23 = test system: NCI-H23
NCI-H460 = test system: NCI-H460
NCI-H522 = test system: NCI-H522
OVCAR-3 = test system: OVCAR-3
OVCAR-4 = test system: OVCAR-4
OVCAR-5 = test system: OVCAR-5
PC-3 = test system: PC-3
RPMI-8226 = test system: RPMI-8226
RXF 393 = test system: RXF 393
SF-268 = test system: SF-268
SF-295 = test system: SF-295
SF-539 = test system: SF-539
SK-MEL-28 = test system: SK-MEL-28
SK-MEL-2 = test system: SK-MEL-2
SK-MEL-5 = test system: SK-MEL-5
SK-OV-3 = test system: SK-OV-3
SN12C = test system: SN12C
SNB-19 = test system: SNB-19
SR = test system: SR
SW-620 = test system: SW-620
T47D = test system: T47D
TK-10 = test system: TK-10
U-251 = test system: U-251
UACC-257 = test system: UACC-257
UACC-62 = test system: UACC-62
UO-31 = test system: UO-31
SNB-75 = test system: SNB-75
NCI/ADR-RES = test system: NCI/ADR-RES
OVCAR-8 = test system: OVCAR-8

Measured: GI50

FC(F)(F)c1ccc(/N=N/N2CCCC2)cc1
inactive: 786-0 > 100 µM | A498 > 100 µM | A549 > 100 µM | ACHN > 100 µM | BT-549 > 100 µM | CAKI-1 > 100 µM | CCRF-CEM > 100 µM | COLO 205 > 100 µM | DU-145 > 100 µM | EKVX > 100 µM | HCC 2998 > 100 µM | HCT-116 > 100 µM | HL-60 > 100 µM | HOP-62 > 100 µM | HOP-92 80 µM | HT-29 > 100 µM | Hs-578T > 100 µM | IGROV-1 > 100 µM | K562 > 100 µM | KM12 5.31 µM | LOX IMVI > 100 µM | M14 > 100 µM | MCF7 > 100 µM | MDA-MB-231 > 100 µM | MDA-MB-435 > 100 µM | MDA-N > 100 µM | MOLT-4 > 100 µM | Malme-3M > 100 µM | NCI-H226 > 100 µM | NCI-H23 65.8 µM | NCI-H460 63 µM | NCI-H522 > 100 µM | OVCAR-3 > 100 µM | OVCAR-4 > 100 µM | OVCAR-5 > 100 µM | PC-3 > 100 µM | RPMI-8226 > 100 µM | RXF 393 > 100 µM | SF-268 > 100 µM | SF-295 > 100 µM | SF-539 > 100 µM | SK-MEL-28 > 100 µM | SK-MEL-2 > 100 µM | SK-MEL-5 42.6 µM | SK-OV-3 > 100 µM | SN12C > 100 µM | SNB-19 > 100 µM | SR 68.7 µM | SW-620 > 100 µM | T47D 23.6 µM | TK-10 > 100 µM | U-251 > 100 µM | UACC-257 > 100 µM | UACC-62 > 100 µM | UO-31 54.7 µM
> 100 µM: HCT-15

O=C1CCCCC/C1=C\c1cccc(Cl)c1
inactive: 786-0 41.1 µM | A498 > 100 µM | A549 63.2 µM | ACHN 28.2 µM | BT-549 43.2 µM | CAKI-1 72.6 µM | CCRF-CEM 4.06 µM | COLO 205 35.3 µM | DU-145 > 100 µM | EKVX 50.9 µM | HCC 2998 41.7 µM | HCT-116 40.2 µM | HOP-62 > 100 µM | HOP-92 35.6 µM | HT-29 38.6 µM | Hs-578T 35.9 µM | IGROV-1 46.2 µM | KM12 30.8 µM | LOX IMVI 41.5 µM | M14 32.4 µM | MDA-MB-231 > 100 µM | MDA-MB-435 31 µM | MDA-N 45.4 µM | MOLT-4 27.4 µM | Malme-3M 42.9 µM | NCI-H226 34.4 µM | NCI-H23 42.9 µM | NCI-H460 29.6 µM | NCI-H522 39.2 µM | OVCAR-3 71.3 µM | OVCAR-4 26.5 µM | OVCAR-5 > 100 µM | PC-3 22.5 µM | RPMI-8226 20 µM | SF-268 22 µM | SF-295 20 µM | SK-MEL-28 49.4 µM | SK-MEL-2 46.5 µM | SK-MEL-5 25.4 µM | SK-OV-3 > 100 µM | SN12C 93.8 µM | SNB-19 > 100 µM | SNB-75 48.5 µM | SR 20.4 µM | SW-620 20.8 µM | T47D > 100 µM | U-251 47.2 µM | UACC-257 42.1 µM | UACC-62 45.9 µM | UO-31 24.1 µM
32.2 µM: HCT-15

O=C(O)C(=C\c1ccc2c(c1)OCO2)/C(=C/c1ccc2c(c1)OCO2)C(=O)O
> 100 µM: HCT-15
inactive: A498 > 100 µM | BT-549 > 100 µM | CAKI-1 > 100 µM | CCRF-CEM > 100 µM | COLO 205 > 100 µM | DU-145 > 100 µM | HCC 2998 > 100 µM | HCT-116 > 100 µM | HL-60 > 100 µM | HOP-62 > 100 µM | HOP-92 > 100 µM | HT-29 > 100 µM | Hs-578T > 100 µM | IGROV-1 > 100 µM | K562 > 100 µM | KM12 > 100 µM | LOX IMVI > 100 µM | M14 > 100 µM | MCF7 > 100 µM | MDA-MB-435 > 100 µM | MDA-N > 100 µM | MOLT-4 > 100 µM | Malme-3M > 100 µM | NCI-H226 > 100 µM | NCI-H23 > 100 µM | NCI-H460 > 100 µM | NCI/ADR-RES > 100 µM | OVCAR-3 > 100 µM | OVCAR-4 > 100 µM | OVCAR-5 > 100 µM | OVCAR-8 > 100 µM | PC-3 > 100 µM | RPMI-8226 > 100 µM | RXF 393 > 100 µM | SF-295 > 100 µM | SK-MEL-28 > 100 µM | SK-MEL-2 > 100 µM | SK-MEL-5 > 100 µM | SK-OV-3 > 100 µM | SN12C > 100 µM | SNB-19 > 100 µM | SNB-75 > 100 µM | SR > 100 µM | SW-620 > 100 µM | T47D > 100 µM | TK-10 > 100 µM | U-251 > 100 µM | UACC-257 > 100 µM | UACC-62 > 100 µM | UO-31 > 100 µM

COc1cc([C@@H]2c3cc4c(cc3[C@@H](Nc3ccc(NC(=O)c5cc(NC(=O)c6cc([N+](=O)[O-])cn6C)cn5C)cc3)[C@H]3COC(=O)[C@H]23)OCO4)cc(OC)c1O
inactive: A498 1.35 µM | BT-549 > 100 µM | COLO 205 2.31 µM | EKVX > 40.1 µM | HCC 2998 6.04 µM | Hs-578T > 48.4 µM | KM12 12.5 µM | M14 1.78 µM | MDA-MB-231 > 38.8 µM | Malme-3M 4.35 µM | OVCAR-3 > 49.4 µM | OVCAR-4 > 43.7 µM | OVCAR-5 > 61.4 µM | SF-295 1.57 µM | SK-MEL-2 > 100 µM | SK-OV-3 11.6 µM | SN12C 3.73 µM | SNB-19 15.8 µM | SNB-75 4.89 µM | SW-620 2.72 µM | T47D 31.1 µM | TK-10 > 65.8 µM | U-251 10.3 µM | UO-31 5.22 µM
active: 786-0 0.593 µM | A549 0.239 µM | ACHN 0.2 µM | CAKI-1 0.323 µM | CCRF-CEM 0.154 µM | DU-145 0.374 µM | HCT-116 0.149 µM | HL-60 0.16 µM | HOP-62 0.361 µM | HOP-92 0.885 µM | HT-29 0.355 µM | IGROV-1 0.216 µM | K562 0.0493 µM | LOX IMVI 0.274 µM | MCF7 0.047 µM | MDA-N 0.0308 µM | MOLT-4 < 0.0209 µM | NCI-H226 0.334 µM | NCI-H23 0.465 µM | NCI-H460 0.0303 µM | NCI-H522 0.261 µM | NCI/ADR-RES 0.573 µM | OVCAR-8 0.76 µM | RPMI-8226 0.0324 µM | SF-539 0.364 µM | SK-MEL-5 0.188 µM | SR 0.0159 µM | UACC-257 0.687 µM | UACC-62 0.453 µM
5.73 µM: HCT-15

Cc1nn(C(=O)Cc2ccccc2)c2c1C(c1ccc(O)cc1O)SC(=N)N2 (configuration not stated)
> 100 µM: HCT-15
inactive: 786-0 > 100 µM | A498 > 100 µM | A549 > 100 µM | ACHN > 100 µM | BT-549 > 100 µM | CAKI-1 > 100 µM | CCRF-CEM > 100 µM | COLO 205 > 100 µM | DU-145 > 100 µM | EKVX > 100 µM | HCC 2998 > 100 µM | HCT-116 > 100 µM | HL-60 > 100 µM | HOP-62 > 100 µM | HT-29 > 100 µM | Hs-578T > 100 µM | IGROV-1 > 100 µM | KM12 > 100 µM | LOX IMVI > 100 µM | M14 > 100 µM | MCF7 > 100 µM | MDA-MB-231 > 100 µM | MDA-MB-435 > 100 µM | MDA-N > 100 µM | MOLT-4 > 100 µM | Malme-3M > 100 µM | NCI-H226 > 100 µM | NCI-H23 > 100 µM | NCI-H460 > 100 µM | NCI-H522 > 100 µM | OVCAR-8 > 100 µM | PC-3 > 100 µM | RPMI-8226 > 100 µM | SF-268 > 100 µM | SF-295 > 100 µM | SF-539 > 100 µM | SK-MEL-28 > 100 µM | SK-MEL-5 > 100 µM | SK-OV-3 > 100 µM | SN12C > 100 µM | SNB-19 > 100 µM | SNB-75 17.2 µM | SR > 100 µM | SW-620 > 100 µM | T47D > 100 µM | TK-10 > 100 µM | UACC-257 > 100 µM | UACC-62 > 100 µM | UO-31 > 100 µM
